Measurements as given in paper PMC6269967, “Evaluation of the Interaction between Long Telomeric DNA and Macrocyclic Hexaoxazole (6OTD) Dimer of a G-quadruplex Ligand” (Molecules, 2013).
Read-outs that look alike come from different tables or passages of the source.

Legend:
telo24 [1] = conditions: telo24 (10 μM), ligand 4 eq.; CD at 295 nm, 50 mM Tris–HCl pH 7.5, 100 mM KCl; 1.0 °C/min; ligand-free Tm 59; ref [53]; cited from earlier work
From the text: (§1) Table 1 Tm values (°C) of telomeric DNAs in the absence or presence of G4 ligands 2 and 3 ^a,b,c. | column: Tm

telo48 = conditions: CD at 295 nm, 50 mM Tris–HCl pH 7.5, 100 mM KCl, ref [53], cited from earlier work
From the text: as §1

telomerase [2] = assay: Telomerase repeat amplification protocol (TRAP) assay, cell-free, PC3 cell lysate; type: biochemical; conditions: telomerase reaction 30 min, 20 °C, average of two independent experiments, read-out: telomerase inhibitory activity, IC50
Description: Finally, we examined the telomerase inhibitory activities of the L2H2-6OTD monomer (2) and its dimer 3 in a cell-free system by telomerase repeat amplification protocol (TRAP) assay using PC3 cell lysate. Telomerase is known to elongate various lengths of telomere sequences, and the stabilization ability of each ligand can be evaluated with TRAP assay.
Telomerase repeat amplification protocol (TRAP) assays were conducted as follows; 1 × 10^5 of PC3 cells were lysed with 200 μL of TRAP lysis buffer, placed on ice for 30 min, and centrifuged for 20 min (15,000 rpm, 4 °C). This TRAP lysate (2.0 μL) was mixed with 10×T-PCR buffer (5.0 μL), 2.5 mM dNTPs (1.0 μL), 50 ng/μL TS primer (5'-d[AATCCGTCGAGCAGAGTT]-3', 2.0 μL), 0.2 pM TSNT (5'-d[[…]]-3', 0.5 μL), DEPC (Diethylpyro carbonate) solution in MilliQ water (30 μL), compounds (DMSO solution, 5.0 μL), and placed on ice for 30 min. After the telomerase reactions (30 min, 20 °C), the reacting solution was placed on ice, 2.0 μL of 10 μM NT primer (5'-d[ATCGCTTCTCGGCCTTTT]-3’), 2.0 μL of […] (5'-d[GCGCGG (CTTACC)3CTAACC]-3') and 0.5 μL of Gene Taq (Nippon Gene, Tokyo, Japan) were added. The three-step PCR was performed: 27 cycles of 94 °C for 25 s, 50 °C for 25 s, and 72 °C for 45 s. […] IC50 value was calculated from average of two independent experiments.

telo24 [3] = conditions: earlier work of the authors, reference not given; cited from earlier work
From the text: (§2) For evaluations of interaction and stabilization of telomeric DNA with G4 ligands, telo24 DNA, i.e., four sets of (TTAGGG) repeats consisting of 24 bases in total, has been usually used as a telomeric DNA model, because it is a minimum length able to form one unit of G4 structure.

[4] = test system: long telomeric DNAs telo48, 72, and 96; conditions: ref [53]; cited from earlier work
From the text: as §2

telomerase [5] = conditions: TRAP assay; ref [17],[18],[19],[20],[21],[22]; read-out: telomerase inhibitory activity, IC50; cited from earlier work
From the text: At the end of chromosomes, there exists a characteristic region called the telomere. The telomere is composed of double-stranded tandem repeats of (TTAGGG/AATCCC)n sequence amounting to 2–30 kb, to which telomere binding proteins are bound. These sequences are shortened at each cell division, ultimately inducing cell senescence. At the extreme end of these duplex repeats there is a single-stranded 3' overhang, termed the 3' G-tail, consisting of ca. 50−250 nucleotides in total. The G-tail sequence is considered to form G-quadruplexes (G4s), one of the higher-order structures ...

Row | Structure (SMILES) | Tm (telo24 [1]) | Tm (telo48; DNA printed telo48 (fourth group), ligand 16 eq., ligand-free Tm 55) | Tm (telo48; DNA printed telo48 (third group), ligand 12 eq., ligand-free Tm 55) | Tm (telo48; telo48, ligand 8 eq., 1.0 °C/min, ligand-free Tm 57) | IC50 (telomerase [2]) | interaction mode (telo24 [3]) | interaction mode [4] | IC50 (telomerase [5])
1 | NCCCC[C@@H]1NC(=O)c2coc(n2)-c2coc(n2)-c2coc(n2)[C@H](CCCCN)NC(=O)c2coc(n2)-c2coc(n2)-c2coc1n2 [compound 2] | 75 °C | 70 °C | 73 °C | 76 °C | 15 nM | strongly interacts with telo24 to form anti-parallel-type G4 structure in an end-stacking mode with two molecules of 2 | each telo24 unit in the long telomeric DNAs interacted with two molecules of L2H2-6OTD (2) in an end-stacking mode, and were induced to take anti-parallel-type topology | –
2 | Cc1oc2nc1-c1nc(co1)-c1nc(co1)-c1nc(co1)-c1nc(co1)-c1nc(co1)C1=NC(CS1)c1nc-2c(C)o1 (centres unmarked) [telomestatin] | – | – | – | – | – | – | – | 5 nM
